Test [1] concerns the target Epithelial discoidin domain-containing receptor 1 (Homo sapiens, UniProt Q08345). Briefly: Binding Assays. The method, then: (§1) DDR1 and DDR2 binding assays were performed using Life Technologies LanthaScreen™ Europium Kinase Binding assay. The compounds were incubated with 5 nM DDR1 (Carna Biosciences) or 5 nM DDR2 (Life Technologies) for 1 h at rt in white 384-well OptiPlate (PerkinElmer), containing 20 nM or 10 nM Kinase Tracer 178 respectively and 2 nM Europium labelled anti-GST antibody (Life Technologies) in assay buffer (50 mM HEPES pH 7.5, 10 mM MgCI2, 1 mM EGTA and 0.01% BRIJ35). The ratio of fluorescence emission 665 nm/615 nm after excitation at 340 nm was obtained using the Tecan Spark 20M plate reader. IC50 values were determined in GraphPad Prism 7.0 software, using 4 parameter model: log(inhibitor) vs. response. IC50 values were converted in Ki using the Cheng-Prusoff equation (Ki=IC50/(1+[Tracer]/Kd).

Test [2] concerns the target T1, Discoidin domain-containing receptor 2 (Homo sapiens, UniProt Q16832).
T1 sequence (Q16832 whole entry): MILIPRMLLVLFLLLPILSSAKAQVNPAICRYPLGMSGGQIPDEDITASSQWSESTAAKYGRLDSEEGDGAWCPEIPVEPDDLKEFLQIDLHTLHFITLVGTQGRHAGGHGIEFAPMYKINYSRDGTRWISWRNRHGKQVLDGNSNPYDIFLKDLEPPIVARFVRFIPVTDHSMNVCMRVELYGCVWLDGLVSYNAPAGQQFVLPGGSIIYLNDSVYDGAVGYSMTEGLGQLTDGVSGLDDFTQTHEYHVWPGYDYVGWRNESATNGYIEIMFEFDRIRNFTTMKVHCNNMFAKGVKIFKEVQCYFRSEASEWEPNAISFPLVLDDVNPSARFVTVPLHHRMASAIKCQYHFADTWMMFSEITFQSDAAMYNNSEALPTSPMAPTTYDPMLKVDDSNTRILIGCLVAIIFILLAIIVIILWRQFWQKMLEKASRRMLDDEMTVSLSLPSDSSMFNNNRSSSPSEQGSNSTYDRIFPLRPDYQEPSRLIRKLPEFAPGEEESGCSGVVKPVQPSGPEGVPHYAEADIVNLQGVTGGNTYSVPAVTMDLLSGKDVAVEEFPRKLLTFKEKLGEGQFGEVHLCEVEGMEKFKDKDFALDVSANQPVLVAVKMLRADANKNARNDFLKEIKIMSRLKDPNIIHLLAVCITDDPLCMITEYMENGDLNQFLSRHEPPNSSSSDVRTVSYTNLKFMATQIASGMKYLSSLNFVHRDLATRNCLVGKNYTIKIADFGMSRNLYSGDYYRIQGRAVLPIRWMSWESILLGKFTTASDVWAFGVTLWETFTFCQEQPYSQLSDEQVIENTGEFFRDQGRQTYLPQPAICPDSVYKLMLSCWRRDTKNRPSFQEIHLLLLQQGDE
In words: Binding Assays. The method, then: as §1

Epithelial discoidin domain-containing receptor 1, sequence (Q08345 whole entry, the tested form may be a part): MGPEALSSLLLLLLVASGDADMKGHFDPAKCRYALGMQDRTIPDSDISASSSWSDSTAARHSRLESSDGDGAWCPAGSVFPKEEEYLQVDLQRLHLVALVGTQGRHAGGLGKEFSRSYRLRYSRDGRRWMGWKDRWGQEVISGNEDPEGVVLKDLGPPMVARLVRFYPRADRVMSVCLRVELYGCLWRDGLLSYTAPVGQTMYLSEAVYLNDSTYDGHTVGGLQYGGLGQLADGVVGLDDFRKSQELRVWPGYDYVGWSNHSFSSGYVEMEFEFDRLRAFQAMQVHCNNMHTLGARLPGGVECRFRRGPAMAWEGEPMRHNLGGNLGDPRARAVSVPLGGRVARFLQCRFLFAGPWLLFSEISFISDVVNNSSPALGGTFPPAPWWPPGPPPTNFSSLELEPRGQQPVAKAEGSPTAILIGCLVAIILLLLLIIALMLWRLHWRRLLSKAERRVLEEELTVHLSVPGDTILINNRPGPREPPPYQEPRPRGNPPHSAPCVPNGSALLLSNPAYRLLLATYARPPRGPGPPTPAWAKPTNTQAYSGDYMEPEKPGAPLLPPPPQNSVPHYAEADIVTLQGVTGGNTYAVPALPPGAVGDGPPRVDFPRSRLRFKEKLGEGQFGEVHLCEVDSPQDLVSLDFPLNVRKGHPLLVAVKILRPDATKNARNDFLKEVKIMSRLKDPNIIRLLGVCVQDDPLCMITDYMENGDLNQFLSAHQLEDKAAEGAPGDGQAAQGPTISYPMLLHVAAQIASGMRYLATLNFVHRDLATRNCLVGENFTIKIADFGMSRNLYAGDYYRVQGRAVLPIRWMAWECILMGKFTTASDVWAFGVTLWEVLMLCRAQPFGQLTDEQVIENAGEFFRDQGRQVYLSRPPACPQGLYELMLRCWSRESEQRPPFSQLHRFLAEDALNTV

By Ki is commonly meant a dissociation constant, usually derived from enzyme kinetics or from competition with a known ligand. A low value points to a stronger hold on the target. `Cc1ccc(C(=O)Nc2cncc(C(F)(F)F)c2)cc1OC1CN(c2cncc(C(N)=O)c2)C1` [US20260028328, Example 139] returned a Ki in test [1] of less than 0.005 µM.

Regarding `Cc1ccc(C(=O)Nc2cncc(C(F)(F)F)c2)cc1SC1CN(c2cncnc2)C1` [US20260028328, Example 177], the Ki was 0.025 to 0.1 µM in test [2] and 0.005 to 0.025 µM in test [1].

The record behind these values is BindingDB's records for patent US20260028328 (Chiesi Farmaceutici, 2026).
